# Test results published in patent publication US20240166591A1, “Pharmaceutical Products Based on Cannabinoid Acid Esters” (priority 2021, published 2024).
# pEC50: −log10 of the molar value.
# What was measured:
# [1] = system: SK-BR-3 cancer cell line (human breast cancer cell line); assay: MTT cytotoxicity assay, SK-BR-3 cancer cell line; type: cell-based; conditions: for pEC50: cancer cell line SKBR3
# Text: (§1) The cytotoxic activity of CBDA methyl esters, CBCA CBGA and THCA was studied by the in vitro MTT colorimetric process (Mosmann, T. et al. J. Immunol. Methods. 1983; 65: 55-63). This method, which is widely used to measure cellular metabolic activity as an indicator of cell viability, division and cytotoxicity, is based on the reduction of a yellow salt of tetrazole ((3-(4,5-dimethylthiazol-2-yl)-2). 5-diphenyltetrazolium bromide or MTT) in violet formazan crystals from metabolically active cells.
# (§2) Briefly for this cytotoxicity test, the SK-BR-3 cancer cell line (human breast cancer cell line), the MCF-7 cancer cell line (human breast cancer cell line), and the A2058 cancer cell line […]) and the cancer line SKMEL28 (melanoma line). All cell lines were tested at 20% v/v O2, in the presence of 10% FBS after 48 h or 72 h of incubation.
# [2] = system: MCF-7 cancer cell line (human breast cancer cell line); assay: MTT cytotoxicity assay, MCF-7 cancer cell line; type: cell-based; conditions: MCF7 cell line
# Text: as §1, §2
# [3] = system: A2058 cancer cell line (melanoma); assay: MTT cytotoxicity assay, A2058 cancer cell line; type: cell-based
# Text: as §1, §2
# [4] = system: SKMEL28 (melanoma line); assay: MTT cytotoxicity assay, SKMEL28 cancer line; type: cell-based
# Text: as §1, §2
# [5] = system: normal MCF10A cells; assay: Cytotoxic activity in normal MCF10A cells compared to SK-BR-3; type: cell-based; conditions: FIG. 3
# Text: FIG. 3. Comparison of the cytotoxic activity of CBDA methyl ester in SK-BR-3 cancer cells compared to the cytotoxic activity in normal MCF10A cells.
# as §1
# [6] = system: breast cancer cells MDA-MB-231; conditions: cited from earlier work
# [7] = system: cyclooxygenase-2; conditions: MDA-MB-231; cited from earlier work
# [8] = MTT, incubation time not stated (48 h or 72 h)
smiles,measurement,setting,value
"CCCCCc1cc2c(c(O)c1C(=O)OC)C1C=C(C)CCC1C(C)(C)O2 (stereo not shown) [THCA-Me, THCA methyl ester]",pEC50,[1]; [8],4.44
"CCCCCc1cc2c(c(O)c1C(=O)OC)C=CC(C)(CCC=C(C)C)O2 (stereo not shown) [CBCA-Me, CBCA methyl ester]",pEC50,[1]; [8],4.46
"CCCCCc1cc(O)c(C/C=C(\C)CCC=C(C)C)c(O)c1 [CBG, cannabigerol, reference compound]",pEC50,"[1]; Homo sapiens, SK-BR-3, 72 h",4.41
"CCCCCc1cc(O)c(C/C=C(\C)CCC=C(C)C)c(O)c1C(=O)OC [CBGA-Me, CBGA methyl ester]",relative cytotoxic activity among the esters,"[1]; SKBR3, 48 h and 72 h (FIGS. 1 and 2)",greatest activity
same,activity compared with the corresponding decarboxylated product,"[1]; SKBR3, 72 h for CBGA methyl ester vs CBG",almost twice as active as CBG
same,pEC50,[1]; [8],4.69
same,pEC50,[2],4.74
same,pEC50,[3],4.77
same,pEC50,[4],4.77
"C=C(C)[C@@H]1CCC(C)=C[C@H]1c1c(O)cc(CCCCC)c(C(=O)OC)c1O [CBDA-Me, CBDA methyl ester]",pEC50,[1]; [8],4.51
same,effect on SK-BR-3 cancer cells compared with normal MCF10A cells,[5],much stronger effect on SK-BR-3 cancer cells than normal MCF10A cells
"C=C(C)[C@@H]1CCC(C)=C[C@H]1c1c(O)cc(CCCCC)c(C(=O)O)c1O [CBDA, Cannabidiolic acid]",cell migration,[6],inhibit cell migration
same,expression of cyclooxygenase-2,[7],enhance the expression of cyclooxygenase-2
